The target of test [1] is T1, DDR1 (Homo sapiens, UniProt Q08345).
T1 construct: The enzymes were purchased as a catalytic domain GST Tag DDR1(#PR6913A); purchased ThermoFisher PR6913A
Description: LanthaScreen Eu-Kinase Binding Assay (TR-FRET tracer displacement), DDR1. Particulars: catalytic domain GST Tag DDR1; Kinase Tracer 178. An excerpt: (§1) DDR1/2 binding assay: The binding assay relies on the LanthaScreen ™ Eu-Kinase Binding Assay (ThermoFisher Scientfic). This is a kinase assay platform based on measuring the binding and displacement of an Alexa Fluor® conjugate of an ATP-competitive kinase inhibitor or tracer at a kinase active site (Kinase Tracer 178. #PV5593). Binding of the tracer to the kinase is detected by addition of a europium (Eu)-labeled anti-GST antibody (#PV 5594) which specifically labels the kinase of interest. This binding results in a high degree of fluorescence resonance energy transfer (FRET), whereas displacement of the tracer with a kinase inhibitor results in a loss of FRET. The enzymes were purchased as a catalytic domain GST Tag DDR1(#PR6913A) and DDR2 (#PR7167A) from ThermoFisher. Assay conditions were as indicated by the kit manufacturers. Assays were performed in 384-well plates. The final read out was generated using an EnVision plate reader (Perkin-Elmer). The emission ratio was calculated by dividing the acceptor/tracer emission (665 nm) by the antibody/donor emission (615 nm). Values were plotted against the inhibitor concentration and fit to a sigmoid dose-response curve using Activity base by IDBS software.
A general note: In TR-FRET formats the signal depends on donor and acceptor labels being close together.

Test [2] has as its target T2, DDR1 (Mus musculus, UniProt Q03146).
T2 construct: expressed in transfected cells; host or cells: HEK293T
T2 sequence (Q03146 20-911): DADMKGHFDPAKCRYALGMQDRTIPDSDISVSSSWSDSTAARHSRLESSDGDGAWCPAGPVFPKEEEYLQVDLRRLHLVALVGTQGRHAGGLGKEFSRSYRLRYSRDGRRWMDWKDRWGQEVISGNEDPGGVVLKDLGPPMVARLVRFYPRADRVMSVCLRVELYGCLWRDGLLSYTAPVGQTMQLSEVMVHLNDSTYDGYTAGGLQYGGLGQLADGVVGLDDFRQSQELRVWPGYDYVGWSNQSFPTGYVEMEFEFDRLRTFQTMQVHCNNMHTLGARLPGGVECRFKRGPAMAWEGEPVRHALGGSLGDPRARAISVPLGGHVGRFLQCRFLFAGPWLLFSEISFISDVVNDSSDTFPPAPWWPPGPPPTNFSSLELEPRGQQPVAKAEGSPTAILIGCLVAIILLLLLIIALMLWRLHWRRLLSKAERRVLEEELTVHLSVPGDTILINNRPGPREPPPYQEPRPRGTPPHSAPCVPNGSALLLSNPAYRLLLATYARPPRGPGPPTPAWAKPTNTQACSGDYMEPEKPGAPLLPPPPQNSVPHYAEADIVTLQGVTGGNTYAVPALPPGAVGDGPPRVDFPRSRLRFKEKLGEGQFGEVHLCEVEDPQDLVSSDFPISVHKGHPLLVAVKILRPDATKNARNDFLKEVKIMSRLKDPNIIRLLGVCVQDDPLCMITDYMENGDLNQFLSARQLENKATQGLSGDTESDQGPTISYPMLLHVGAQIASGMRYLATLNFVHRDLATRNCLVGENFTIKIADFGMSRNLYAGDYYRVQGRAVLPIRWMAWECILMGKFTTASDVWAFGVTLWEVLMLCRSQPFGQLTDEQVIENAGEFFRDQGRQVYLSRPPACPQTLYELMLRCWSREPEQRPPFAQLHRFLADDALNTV
As to the kind of experiment: Cellular assay: inhibition of Collagen I-induced DDR1 autophosphorylation in HEK293T cells transiently transfected with DDR1 plasmid (Western blot). In kind it is cell-based, human. Conditions: pcDNA3.1 DDR1 WT mouse plasmid, compound 1 h, then 10 µg/mL Collagen I 1 h, P-DDR1 (Y513), read-out: pDDR1 EC50. The protocol: DDR1/2 cellular assay: Transient transfection of HEK293T cells with DDR1 plasmid is used to study the inhibition of the autophosphorylation of DDR1 induced by Collagen I in cells. HEK293T are seeded, 6x10^5 cells per well in 6-well plates and incubated for 6 h at 37 °C, 5% CO2. Then, cells are transfected using Effectene reactive (Quiagen) with pcDNA3.1 DDR1 WT mouse plasmid. Cells are incubated with transfection complexes under normal growth conditions for 24 h. After that, medium is replaced with fresh medium and cells are incubated for an additional 18 h. Eight serial 1:3 compound dilutions are made in DMSO. The compounds are added to each well of 6 well cell plates and are incubated at 37 °C under CO2 atmosphere 1 h. DDR1's autophosphorylation is stimulated by 1h treatment with 10 µg/mL Collagen I. Then, cells are washed in PBS, lyse adding 100 µl of complete RIPA protein lysis buffer (RIPA Buffer, 1 mM DTT, 5 mM Bezamidine, 10 µg/mL Aprotinin, 10 µg/mL Leupeptin, 710 ng/mL Pepstatin A, 100 µg/mL Trypsin Inhibitor, 40 µg/mL Bestatin, completed with PhosSTOP EASYpack and complete Mini, EDTA-free) and incubated 20 minutes at 4 °C and then centrifugated. Lysates are kept at -80 °C. The protein content of the lysates is determined by DC protein assay (Biorad, Ref. 5000116). The proteins are resolved by SDS-PAGE and transferred to nitrocellulose membrane (GE Healthcare #10600003). The membranes are incubated overnight at 4 °C with antibodies specific for DDR1 (D1G6) (Cell signaling #5583), P-DDR1 (Y513) (E1N8F) (Cell Signaling # 14531) they are washed and then incubated with Alexa Fluor 680 goat anti-rabbit IgG secondary antibodies (Invitrogen, A21076). The bands are visualized and quantified using an Odyssey infrared imaging system (Li-Cor Biosciences). The percentage of DDR1 phosphorylation is finally plotted against concentration for each compound and EC50s for intracellular DDR1 inhibition are calculated using ActivityBase from IDBS.

The target in the next test is T3, DDR2 (Homo sapiens, UniProt Q16832).
T3 construct: The enzymes were purchased as a catalytic domain GST Tag DDR1(#PR6913A) and DDR2 (#PR7167A); purchased ThermoFisher PR7167A
T3 sequence (Q16832 563-849 limits assumed): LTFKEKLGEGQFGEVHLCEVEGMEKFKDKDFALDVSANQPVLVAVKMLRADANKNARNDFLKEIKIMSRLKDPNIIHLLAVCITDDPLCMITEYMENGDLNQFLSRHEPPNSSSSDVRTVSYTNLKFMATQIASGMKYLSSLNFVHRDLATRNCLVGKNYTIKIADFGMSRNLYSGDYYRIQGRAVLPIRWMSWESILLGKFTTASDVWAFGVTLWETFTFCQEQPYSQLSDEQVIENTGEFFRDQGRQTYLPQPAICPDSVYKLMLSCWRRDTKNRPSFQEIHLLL
As to the kind of experiment: LanthaScreen Eu-Kinase Binding Assay (TR-FRET tracer displacement), DDR2. Particulars: catalytic domain GST Tag DDR2; Kinase Tracer 178.
Description: as §1

T1 sequence (Q08345 610-905 limits assumed): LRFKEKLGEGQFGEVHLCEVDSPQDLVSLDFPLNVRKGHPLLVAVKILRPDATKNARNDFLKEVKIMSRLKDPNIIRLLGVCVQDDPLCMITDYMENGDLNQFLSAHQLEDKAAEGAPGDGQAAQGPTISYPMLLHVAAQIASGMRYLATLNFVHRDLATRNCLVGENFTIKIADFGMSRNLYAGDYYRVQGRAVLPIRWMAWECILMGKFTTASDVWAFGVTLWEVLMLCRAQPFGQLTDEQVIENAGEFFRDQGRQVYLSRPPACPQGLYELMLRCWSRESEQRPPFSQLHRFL

One may read the IC50 as the concentration that inhibits the measured activity by half. A high value points to a need for much substance. As usually defined, the EC50 is the concentration needed to bring the measured effect to its halfway point. Regarding `O=c1ccnc2sc(-c3ccnc(Nc4ccccc4)n3)c(-c3ccccc3)n12` [Compound 29, 3-Phenyl-2-(2-phenylamino-pyrimidin-4-yl)-thiazolo[3,2-a]pyrimidin-5-one], the IC50 at DDR1 [1] was 69.9 nM; on DDR2, 186 nM. In addition, at DDR1 [2], the EC50 was 339 nM.
For `COc1ccccc1-c1c(-c2ccnc(Nc3ccc(N4CCN(C)CC4)cc3)n2)sc2nccc(=O)n12` [Compound 48, 3-(2-Methoxy-phenyl)-2-{2-[4-(4-methyl-piperazin-1-yl)-phenylamino]-pyrimidin-4-yl}-thiazolo[3,2-a]pyrimidin-5-one], the IC50 on DDR1 [1] is 19.3 nM; on DDR2, 71.2 nM. The EC50 at DDR1 [2] is 27.5 nM.
The corresponding values for `O=c1ccnc2sc(-c3ccnc(Nc4cccc(N5CCN(CCO)CC5)c4)n3)c(-c3ccc(F)c(C(F)(F)F)c3)n12` [Compound 63, 3-(4-Fluoro-3-trifluoromethyl-phenyl)-2-(2-{3-[4-(2-hydroxy-ethyl)-piperazin-1-yl]-phenylamino}-pyrimidin-4-yl)-thiazolo[3,2-a]pyrimidin-5-one] are 119 nM, 325 nM and 142 nM.
Regarding `CCOC(=O)c1cnc2sc(-c3ccnc(Nc4cccc(N5CCN(CCO)CC5)c4)n3)c(-c3ccccc3)n2c1=O` [Compound 71, 2-(2-{3-[4-(2-Hydroxy-ethyl)-piperazin-1-yl]-phenylamino}-pyrimidin-4-yl)-5-oxo-3-phenyl-5H-thiazolo[3,2-a]pyrimidine-6-carboxylic acid ethyl ester], the IC50 at DDR1 [1] came to 147 nM; on DDR2, 423 nM. Besides, the EC50 at DDR1 [2] was determined as 34.6 nM.
As to `O=c1ccnc2sc(-c3ccnc(Nc4cccc(N5CCN(CCO)CC5)c4)n3)c(-c3ccc(F)cc3)n12` [Compound 58, 3-(4-Fluoro-phenyl)-2-(2-{3-[4-(2-hydroxy-ethyl)-piperazin-1-yl]-phenylamino}-pyrimidin-4-yl)-thiazolo[3,2-a]pyrimidin-5-one], the IC50 came to 6.4 nM at DDR1 [1] and 30.5 nM at DDR2. The EC50 at DDR1 [2] worked out at 28 nM.
Taken in the same sequence, the figures for `O=c1ccnc2sc(-c3ccnc(Nc4cccc(N5CCN(CCO)CC5)c4)n3)c(-c3cccc(Cl)c3)n12` [Compound 41, 3-(3-Chloro-phenyl)-2-(2-{3-[4-(2-hydroxy-ethyl)-piperazin-1-yl]-phenylamino}-pyrimidin-4-yl)-thiazolo[3,2-a]pyrimidin-5-one] were 6.24 nM, 36.9 nM and 40.4 nM.
For the compound `O=c1ccnc2sc(-c3ccnc(Nc4cccc(N5CCN(CCO)CC5)c4)n3)c(-c3ccc(Cl)cc3)n12` [Compound 44, 3-(4-Chloro-phenyl)-2-(2-{3-[4-(2-hydroxy-ethyl)-piperazin-1-yl]-phenylamino}-pyrimidin-4-yl)-thiazolo[3,2-a]pyrimidin-5-one], the IC50 on DDR1 [1] was 2.73 nM; on DDR2 it was 11.7 nM. In addition, the EC50 on DDR1 [2] was 24.9 nM.
Taken in the same sequence, the figures for `COc1ccc(-c2c(-c3ccnc(Nc4cccc(N5CCN(CCO)CC5)c4)n3)sc3nccc(=O)n23)cc1` [Compound 53, 2-(2-{3-[4-(2-Hydroxy-ethyl)-piperazin-1-yl]-phenylamino}-pyrimidin-4-yl)-3-(4-methoxy-phenyl)-thiazolo[3,2-a]pyrimidin-5-one] were 5.46 nM, 16.8 nM and 19.3 nM.
Taken in the same sequence, the figures for `CCc1c(C)nc2sc(-c3ccnc(Nc4cccc(N5CCN(CCO)CC5)c4)n3)c(-c3ccccc3)n2c1=O` [Compound 77, 6-Ethyl-2-(2-{3-[4-(2-hydroxy-ethyl)-piperazin-1-yl]-phenylamino}-pyrimidin-4-yl)-7-methyl-3-phenyl-thiazolo[3,2-a]pyrimidin-5-one] were 25.5 nM, 69.4 nM and 46.8 nM.
The corresponding values for `COc1ccc(-c2c(-c3ccnc(Nc4cccc(S(N)(=O)=O)c4)n3)sc3nccc(=O)n23)cc1` [Compound 52, 3-{4-[3-(4-Methoxy-phenyl)-5-oxo-5H-thiazolo[3,2-a]pyrimidin-2-yl]-pyrimidin-2-ylamino}-benzenesulfonamide] are 10.9 nM, 40.6 nM and 112 nM.
On to `COc1cccc(-c2c(-c3ccnc(Nc4cccc(S(N)(=O)=O)c4)n3)sc3nccc(=O)n23)c1` [Compound 49, 3-{4-[3-(3-Methoxy-phenyl)-5-oxo-5H-thiazolo[3,2-a]pyrimidin-2-yl]-pyrimidin-2-ylamino}-benzenesulfonamide], for which the IC50 came out at 20.9 nM at DDR1 [1] and 103 nM at DDR2. Moreover, at DDR1 [2], the EC50 was 99.8 nM.
The corresponding values for `COc1ccccc1-c1c(-c2ccnc(Nc3cccc(N4CCN(CCO)CC4)c3)n2)sc2nccc(=O)n12` [Compound 47, 2-(2-{3-[4-(2-Hydroxy-ethyl)-piperazin-1-yl]-phenylamino}-pyrimidin-4-yl)-3-(2-methoxy-phenyl)-thiazolo[3,2-a]pyrimidin-5-one] are 9.5 nM, 24.4 nM and 27.8 nM.
The corresponding values for `O=c1ccnc2sc(-c3ccnc(Nc4cccc(N5CCN(CCO)CC5)c4)n3)c(C3CC3)n12` [Compound 65, 3-Cyclopropyl-2-(2-{3-[4-(2-hydroxy-ethyl)-piperazin-1-yl]-phenylamino}-pyrimidin-4-yl)-thiazolo[3,2-a]pyrimidin-5-one] are 118 nM, 466 nM and 163 nM.

For the origin of these results see patent EP4032896A1, “THIAZOLOPYRIMIDONES AS INHIBITORS OF DDR1/2 AND THERAPEUTIC USES THEREOF” (Fundación del Sector Público Estatal Centro Nacional de …, priority 2021, dated 2022).
